# Measured values as given in patent US20220305012A1, “L[…] TREATING SLEEP ISSUES” (EISAI R&D MANAGEMENT CO., LTD., priority 2019, published 2022).
# Assays:
# Format in all cases: in vivo, human
# [1] = tested on: Subjects Having Insomnia Disorder; experiment: Example 2: wake after sleep onset in the second half of the night (WASO2H), polysomnography
# Protocol: (§1) In some embodiments, a sleep parameter is determined objectively using polysomnography. Polysomnography is the monitoring of multiple electrophysiological parameters during sleep and generally includes measurement of EEG activity, electro-oculographic activity and electromyographic activity, as well as other measurements.
# WASO2H: wake after sleep onset in the second half of the night: minutes of wake during the interval from 240 minutes after lights off until lights on.
# (§2) The treatment period lasted for 31 days. Subjects were randomized in a double-blind manner and received placebo, a tablet containing 5 mg of lemborexant, a tablet containing 10 mg of lemborexant, or a tablet containing 6.25 mg of zolpidem ER.
# (§3) Within 5 minutes of the subject's mean habitual bedtime, study drug was administered and an overnight polysomnogram recording was initiated. At completion of the recording the following morning (Day 2), postural stability and cognitive performance were assessed. On the Day 2 evening, subjects returned to the clinic and a blood sample was collected before administering study drug, and then study drug was administered within 5 minutes of the subject's mean habitual bedtime. Again, a polysomnogram recording was initiated. The next morning (Day 3), postural stability and cognitive performance were assessed. A blood sample was also collected.
# (§4) On Day 29, subjects returned to the clinic. Study drug was administered within 5 minutes of the subject's mean habitual bedtime and a polysomnogram recording was conducted. On the following morning (Day 30), postural stability and cognitive performance were assessed. After 1.5 hours of waketime, subjects rated their morning sleepiness level.
# (§5) On the evening of Day 30, subjects returned to the clinic. A pre-dose blood sample was collected and study drug was again administered within 5 minutes of the subject's mean habitual bedtime. A polysomnogram recording was initiated. The following morning (Day 31), postural stability and cognitive performance were assessed and a blood sample was obtained. The ISI, FSS, EQ-5D-3L and PGI-Insomnia were administered. Blood and urine samples were collected for routine safety assessment. An electrocardiogram was performed, and vital signs and weight were assessed. The eC-SSRS was then administered to the subject. At 1.5 hours after waketime, subjects rated their morning sleepiness level.
# Another key secondary endpoint was to determine the change from baseline for mean wake after sleep onset in the second half of the night on Days 29 and 30 after administration of 5 mg or 10 mg of lemborexant compared to administration of 6.25 mg of zolpidem ER.
# [2] = tested on: Subjects Having Insomnia Disorder; experiment: Example 2: total sleep time (TST), polysomnography
# Protocol: as §1
# TST—total sleep time: minutes of sleep from sleep onset until terminal awakening.
# as §2, §3, §4, §5
# [3] = tested on: Subjects Having Insomnia Disorder; experiment: Example 2: Insomnia Severity Index Total Score (Items 1-7); settings: for Insomnia Severity Total Score (Items 1-7), Change from Study Baseline, Mean (SD) / Insomnia Severity Total Score (Items 1-7), Change from Study Baseline, Median / Insomnia Severity Total Score (Items 1-7), Mean (SD) / Insomnia Severity Total Score (Items 1-7), Median: Day 31
# Excerpt: As used herein, the term “Insomnia Severity Index”, abbreviated as “ISI”, is an index calculated using a 7-item, self-report questionnaire assessing the nature, severity, and impact of insomnia (see Bastien, C. H., et al. “Validation of the Insomnia Severity Index as an outcome measure for insomnia research.” Sleep Med. 2001; 2(4): 297-307). The questionnaire evaluates: (1) severity of sleep onset; (2) sleep maintenance; (3) early morning awakening problems; (4) sleep dissatisfaction; (5) interference caused by sleep difficulties with daytime functioning; (6) noticeability of sleep problems by others; and (7) distress caused by the sleep difficulties. A 5-point scale is used to rate each item (0=no problem to 4=very severe problem) yielding a total score from 0 to 28. Total ISI score (items (1)-(7)) and daytime functioning (items (4)-(7)) are analyzed separately.
# On day 1 of the baseline period, subjects were admitted to the clinic and ISI, FSS, and EQ-5D-3L were administered. Blood and urine samples were collected for routine safety assessments, an ECG was performed, and vital signs and weight were assessed. The eC-SSRS was administered. Subjects who completed the baseline period and continued to meet the eligibility criteria were randomized and began the randomization phase.
# as §5
# [4] = tested on: Subjects Having Insomnia Disorder; experiment: Example 2: Cognitive Performance Assessment Battery
# Protocol: FIG. 11A-FIG. 11D show the change from baseline (least squares mean) in the four domains of the Cognitive Performance Assessment Battery at Days 2/3 and Days 30/31 in patients treated with placebo, 6.25 mg of zolpidem, 5 mg of lemborexant, or 10 mg of lemborexant.
# Subjects were provided with a sleep diary and trained on how to record entries. After subjects completed the sleep diary on 7 consecutive mornings, and provided that the subject was still eligible to participate in the study, they attended a second clinical meeting between 10 and 17 days before the randomization phase. […]
# Within 5 minutes of the subject's mean habitual bedtime, study drug was administered and an overnight polysomnogram recording was initiated. At completion of the recording the following morning (Day 2), postural stability and cognitive performance were assessed. […] The next morning (Day 3), postural stability and cognitive performance were assessed. […]
# On Day 29, subjects returned to the clinic. […] On the following morning (Day 30), postural stability and cognitive performance were assessed. […]
# On the evening of Day 30, subjects returned to the clinic. […] The following morning (Day 31), postural stability and cognitive performance were assessed and a blood sample was obtained. […] An electrocardiogram was performed, and vital signs and weight were assessed. […]
# [5] = Days 29/30, Zolpidem ER 6.25 mg
smiles,measurement,setting,value
"Cc1ncc(OC[C@@]2(c3cccc(F)c3)C[C@H]2C(=O)Nc2ccc(F)cn2)c(C)n1 [Lemborexant, (1R,2S)-2-(((2,4-dimethylpyrimidin-5-yl)oxy)methyl)-2-(3-fluorophenyl)-N-(5-fluoropyridin-2-yl)cyclopropanecarboxamide]","Wake After Sleep Onset in the Second Half of the Night, Change from Study Baseline, Mean (SD)","[1]; Days 1/2, Lemborexant 5 mg",−30.28 (32.056)
same,"Wake After Sleep Onset in the Second Half of the Night, Change from Study Baseline, Median","[1]; Days 1/2, Lemborexant 5 mg",−27.63
same,"Wake After Sleep Onset in the Second Half of the Night, Mean (SD)","[1]; Days 1/2, Lemborexant 5 mg",46.32 (25.600)
same,"Wake After Sleep Onset in the Second Half of the Night, Median","[1]; Days 1/2, Lemborexant 5 mg",40.88
same,"Wake After Sleep Onset in the Second Half of the Night, Change from Study Baseline, Mean (SD)","[1]; Days 1/2, Lemborexant 10 mg",−37.10 (30.815)
same,"Wake After Sleep Onset in the Second Half of the Night, Change from Study Baseline, Median","[1]; Days 1/2, Lemborexant 10 mg",−32.00
same,"Wake After Sleep Onset in the Second Half of the Night, Mean (SD)","[1]; Days 1/2, Lemborexant 10 mg",39.78 (23.709)
same,"Wake After Sleep Onset in the Second Half of the Night, Median","[1]; Days 1/2, Lemborexant 10 mg",34.00
same,"Wake After Sleep Onset in the Second Half of the Night, Change from Study Baseline, LSM treatment difference: Lemborexant-Zolpidem","[1]; Days 29/30, Lemborexant 5 mg",−6.65 (2.298)
same,"Wake After Sleep Onset in the Second Half of the Night, Change from Study Baseline, Mean (SD)","[1]; Days 29/30, Lemborexant 5 mg",−27.19 (33.047)
same,"Wake After Sleep Onset in the Second Half of the Night, Change from Study Baseline, Median","[1]; Days 29/30, Lemborexant 5 mg",−25.63
same,"Wake After Sleep Onset in the Second Half of the Night, Mean (SD)","[1]; Days 29/30, Lemborexant 5 mg",49.11 (28.179)
same,"Wake After Sleep Onset in the Second Half of the Night, Median","[1]; Days 29/30, Lemborexant 5 mg",42.13
same,"Wake After Sleep Onset in the Second Half of the Night, Change from Study Baseline, LSM treatment difference: Lemborexant-Zolpidem","[1]; Days 29/30, Lemborexant 10 mg",−8.00 (2.309)
same,"Wake After Sleep Onset in the Second Half of the Night, Change from Study Baseline, Median","[1]; Days 29/30, Lemborexant 10 mg",−27.25
same,"Wake After Sleep Onset in the Second Half of the Night, Mean (SD)","[1]; Days 29/30, Lemborexant 10 mg",48.15 (27.844)
same,"Wake After Sleep Onset in the Second Half of the Night, Median","[1]; Days 29/30, Lemborexant 10 mg",41.75
same,mean wake after sleep onset in the second half of the night,"[1]; all lemborexant treatment groups, relative to baseline, placebo and zolpidem treatment groups (Table 16)",reduced
same,"Total Sleep Time, Change from Study Baseline, Mean (SD)","[2]; Days 1/2, Lemborexant 5 mg",65.22 (46.695)
same,"Total Sleep Time, Change from Study Baseline, Median","[2]; Days 1/2, Lemborexant 5 mg",59.50
same,"Total Sleep Time, Mean (SD)","[2]; Days 1/2, Lemborexant 5 mg",393.22 (40.346)
same,"Total Sleep Time, Median","[2]; Days 1/2, Lemborexant 5 mg",400.63
same,"Total Sleep Time, Change from Study Baseline, Mean (SD)","[2]; Days 1/2, Lemborexant 10 mg",79.58 (47.350)
same,"Total Sleep Time, Change from Study Baseline, Median","[2]; Days 1/2, Lemborexant 10 mg",74.25
same,"Total Sleep Time, Mean (SD)","[2]; Days 1/2, Lemborexant 10 mg",404.65 (36.593)
same,"Total Sleep Time, Median","[2]; Days 1/2, Lemborexant 10 mg",411.50
same,"Total Sleep Time, Change from Study Baseline, LSM treatment difference: Lemborexant-Zolpidem","[2]; Days 29/30, Lemborexant 5 mg",19.41 (3.457)
same,"Total Sleep Time, Change from Study Baseline, Mean (SD)","[2]; Days 29/30, Lemborexant 5 mg",61.99 (46.817)
same,"Total Sleep Time, Change from Study Baseline, Median","[2]; Days 29/30, Lemborexant 5 mg",56.50
same,"Total Sleep Time, Mean (SD)","[2]; Days 29/30, Lemborexant 5 mg",389.97 (42.437)
same,"Total Sleep Time, Median","[2]; Days 29/30, Lemborexant 5 mg",399.63
same,"Total Sleep Time, Change from Study Baseline, LSM treatment difference: Lemborexant-Zolpidem","[2]; Days 29/30, Lemborexant 10 mg",24.10 (3.456)
same,"Total Sleep Time, Change from Study Baseline, Mean (SD)","[2]; Days 29/30, Lemborexant 10 mg",67.86 (52.117)
same,"Total Sleep Time, Change from Study Baseline, Median","[2]; Days 29/30, Lemborexant 10 mg",65.13
same,"Total Sleep Time, Mean (SD)","[2]; Days 29/30, Lemborexant 10 mg",393.16 (42.827)
same,"Total Sleep Time, Median","[2]; Days 29/30, Lemborexant 10 mg",400.88
same,mean total sleep time,"[2]; all lemborexant treatment groups, relative to baseline, placebo and zolpidem treatment groups (Table 17)",increased
same,"Insomnia Severity Total Score (Items 1-7), Change from Study Baseline, Mean (SD)",[3]; Lemborexant 5 mg,−7.75 (5.474)
same,"Insomnia Severity Total Score (Items 1-7), Change from Study Baseline, Median",[3]; Lemborexant 5 mg,−7.00
same,"Insomnia Severity Total Score (Items 1-7), Mean (SD)",[3]; Lemborexant 5 mg,11.24 (5.387)
same,"Insomnia Severity Total Score (Items 1-7), Median",[3]; Lemborexant 5 mg,11.00
same,"Insomnia Severity Total Score (Items 1-7), Change from Study Baseline, Mean (SD)",[3]; Lemborexant 10 mg,−7.92 (5.894)
same,"Insomnia Severity Total Score (Items 1-7), Change from Study Baseline, Median",[3]; Lemborexant 10 mg,−7.00
same,"Insomnia Severity Total Score (Items 1-7), Mean (SD)",[3]; Lemborexant 10 mg,11.11 (5.639)
same,"Insomnia Severity Total Score (Items 1-7), Median",[3]; Lemborexant 10 mg,11.00
same,mean insomnia severity index total score,"[3]; lemborexant treatment groups, relative to baseline and the placebo treatment group (Table 22)",reduced
same,cognitive tests compared with placebo,"[4]; either dose, at either time point (FIGS. 11A-11D)",neither dose of lemborexant differed from placebo
"Cc1ccc(-c2nc3ccc(C)cn3c2CC(=O)N(C)C)cc1 [Zolpidem ER, zolpidem, reference compound]","Wake After Sleep Onset in the Second Half of the Night, Change from Study Baseline, Mean (SD)","[1]; Days 1/2, Zolpidem ER 6.25 mg",−24.64 (33.347)
same,"Wake After Sleep Onset in the Second Half of the Night, Change from Study Baseline, Median","[1]; Days 1/2, Zolpidem ER 6.25 mg",−24.13
same,"Wake After Sleep Onset in the Second Half of the Night, Mean (SD)","[1]; Days 1/2, Zolpidem ER 6.25 mg",53.30 (27.706)
same,"Wake After Sleep Onset in the Second Half of the Night, Median","[1]; Days 1/2, Zolpidem ER 6.25 mg",49.25
same,"Wake After Sleep Onset in the Second Half of the Night, Change from Study Baseline, Mean (SD)",[1]; [5],−21.42 (36.257)
same,"Wake After Sleep Onset in the Second Half of the Night, Change from Study Baseline, Median",[1]; [5],−19.13
same,"Wake After Sleep Onset in the Second Half of the Night, Mean (SD)",[1]; [5],56.74 (31.112)
same,"Wake After Sleep Onset in the Second Half of the Night, Median",[1]; [5],51.25
same,"Total Sleep Time, Change from Study Baseline, Mean (SD)","[2]; Days 1/2, Zolpidem ER 6.25 mg",55.31 (48.138)
same,"Total Sleep Time, Change from Study Baseline, Median","[2]; Days 1/2, Zolpidem ER 6.25 mg",52.00
same,"Total Sleep Time, Mean (SD)","[2]; Days 1/2, Zolpidem ER 6.25 mg",382.42 (41.528)
same,"Total Sleep Time, Median","[2]; Days 1/2, Zolpidem ER 6.25 mg",387.25
same,"Total Sleep Time, Change from Study Baseline, Mean (SD)",[2]; [5],43.34 (54.012)
same,"Total Sleep Time, Change from Study Baseline, Median",[2]; [5],39.63
same,"Total Sleep Time, Mean (SD)",[2]; [5],370.25 (48.855)
same,"Total Sleep Time, Median",[2]; [5],377.75
same,"Insomnia Severity Total Score (Items 1-7), Change from Study Baseline, Mean (SD)",[3]; Zolpidem ER 6.25 mg,−8.26 (6.013)
same,"Insomnia Severity Total Score (Items 1-7), Change from Study Baseline, Median",[3]; Zolpidem ER 6.25 mg,−8.00
same,"Insomnia Severity Total Score (Items 1-7), Mean (SD)",[3]; Zolpidem ER 6.25 mg,10.98 (5.452)
same,"Insomnia Severity Total Score (Items 1-7), Median",[3]; Zolpidem ER 6.25 mg,11.00
same,performance on Cognitive Performance Assessment Battery,"[4]; after the first 2 nights of treatment, 3 of the 4 domains vs placebo and 5 mg, 2 of the 4 domains vs 10 mg lemborexant (FIGS. 11A-11D)",significantly worse performance than placebo
